The data set is described as follows: passive permeability, PAMPA, ADME assay (AID 1508612). The settings on record: pH 7.4, 30.0 min, 50.0 µM. Background: The PAMPA barrier holds no transporters, so it reflects passive diffusion.

The structures appear in SMILES notation. Some results are limits rather than exact numbers.

Broadly, the Papp is a coefficient for how fast a substance crosses the barrier. A low value points to slow passage.

`COc1ccc(-n2c(C)c(C(C)=O)c3cc(O)ccc32)cc1` gave a Papp of 415 ×10⁻⁶ cm/s.

`Cc1c(Cl)cccc1-n1ncc(C(=O)Nc2ccc(Br)cc2F)c1C1CCNCC1` yielded an apparent permeability coefficient (Papp) of more than 1000 ×10⁻⁶ cm/s.

`NC(=O)C1CCN(c2nc(-c3ccccc3)cs2)CC1` had a Papp of 598 ×10⁻⁶ cm/s.

`COc1ccc(-c2csc(CCn3nc(C)c4c(C(F)(F)F)cc(=O)[nH]c43)n2)cc1` had a Papp of 825 ×10⁻⁶ cm/s.

For `CC(C)CNc1ccnc(NCc2csc(-c3ccccc3)n2)n1`, the apparent permeability coefficient (Papp) is more than 1000 ×10⁻⁶ cm/s.

For the molecule `Cc1cccc(CNc2ccc(S(=O)(=O)Nc3nccs3)cc2)c1O`, the Papp was 7.9 ×10⁻⁶ cm/s.

For `CN1CCN(C2=Nc3cc(Cl)ccc3Nc3ccccc32)CC1`, the Papp is more than 1000 ×10⁻⁶ cm/s.

As to `COc1ccc(NC(=O)c2c(C)cccc2C)cc1[S+](=O)([O-])N(C)C`, the apparent permeability coefficient (Papp) was 196 ×10⁻⁶ cm/s.

On to `c1ccc(C2=Nn3c(nnc3-c3ccncc3)SC2)cc1`, for which the Papp came out at 195 ×10⁻⁶ cm/s.

With `CCCN1CNc2c(c(=O)[nH]c(=S)n2Cc2ccc(OC)c(OC)c2)C1`, the Papp came out at 55 ×10⁻⁶ cm/s.

For the molecule `Cc1ccc(-c2csc(N3CCC(C(N)=O)CC3)n2)cc1`, the apparent permeability coefficient (Papp) worked out at 711 ×10⁻⁶ cm/s.

Turning to `CCN1CCN(C(=O)CCCn2nc(C)c3c(C)n(-c4ccc(C)cc4)nc3c2=O)CC1`, the Papp amounted to 175 ×10⁻⁶ cm/s.

`CCOc1ccc(CCNC(=O)c2ccnn2Cc2cccc(C)c2)cc1OCC` returned a Papp of more than 1000 ×10⁻⁶ cm/s.

In turn, `O=C(Nc1ccc(S(=O)(=O)Nc2nccs2)cc1)c1ccnc(-c2ccccc2)c1` had an apparent permeability coefficient (Papp) of less than 1 ×10⁻⁶ cm/s.

As for `Cc1ccccc1OCC(O)CO` (configuration not stated), the Papp is 44.4 ×10⁻⁶ cm/s.

Regarding `O=C(Nc1ccc(S(=O)(=O)Nc2nccs2)cc1)c1ccc2ccccc2c1`, the apparent permeability (Papp) amounted to 4.69 ×10⁻⁶ cm/s.

The molecule `Cc1cc(-c2nnc3n2CCCCC3)c(C)n1-c1cccc(C#N)c1` registered an apparent permeability (Papp) of 229 ×10⁻⁶ cm/s.

The molecule `COc1cc2c(cc1Oc1cccc(N(C)C)c1)NC(=O)C21CCN(c2cnccn2)CC1` returned an apparent permeability (Papp) of more than 1000 ×10⁻⁶ cm/s.

`O=C(O)C1CCN(c2ncc(-c3ccc4c(c3)OCCCO4)s2)CC1`: the Papp was 10.1 ×10⁻⁶ cm/s.

Turning to `Cc1ccc(-c2cc(C(=O)NC3CCCCC3)c3ccccc3n2)cc1`, the apparent permeability (Papp) was more than 1000 ×10⁻⁶ cm/s.

`CC(=O)Nc1cc(-c2nc(Nc3ccc(F)c(F)c3)c3ccccc3n2)ccn1` displayed an apparent permeability coefficient (Papp) of 438 ×10⁻⁶ cm/s.

In the case of `CC(C)NC(=O)N1C[C@@H]2C[C@H](C1)c1ccc(-c3cccc(C(F)(F)F)c3)c(=O)n1C2`, the Papp stood at 189 ×10⁻⁶ cm/s.

Consider `Cc1cccc(-c2csc(N3CCC(C(N)=O)CC3)n2)c1`, for which the Papp came to 475 ×10⁻⁶ cm/s.

Turning to `Cc1nn(CC(=O)NCCCN2CCC(N3CCCCC3)CC2)c(=O)c2cc(-c3ccccc3)nn12`, the Papp was found to be 15.4 ×10⁻⁶ cm/s.

Regarding `CCc1ccc(CNc2ccc3c(c2)ncn3C(C)(C)C)cc1`, the Papp is more than 1000 ×10⁻⁶ cm/s.

As to `Cc1cc(NS(=O)(=O)c2ccc(N(C)C(=O)Cc3ccc(Cl)c(Cl)c3)cc2)no1`, the apparent permeability (Papp) was found to be 48.1 ×10⁻⁶ cm/s.

The molecule `Cc1nc(-c2ccco2)cc([C@H]2CN3CC[C@H]2C[C@@H]3CNC(=O)NC2CCCCC2)n1` yielded an apparent permeability coefficient (Papp) of 475 ×10⁻⁶ cm/s.

`Cc1cc(Br)ccc1NC(=O)C(NS(=O)(=O)c1cccs1)c1ccccc1` (configuration not stated) had a Papp of less than 1 ×10⁻⁶ cm/s.

The molecule `O=C(Nc1cncc(Cc2ccccc2)c1)c1ccc(-c2cccc([N+](=O)[O-])c2)o1` had a Papp of more than 1000 ×10⁻⁶ cm/s.

`Cn1cc(Nc2cnccc2C(=O)O)c2cccnc21` showed an apparent permeability (Papp) of 3.2 ×10⁻⁶ cm/s.

`C=CCc1cccc(CNc2ccc(S(=O)(=O)Nc3nccs3)cc2)c1O` gave a Papp of 134 ×10⁻⁶ cm/s.

Consider `CC(C)Oc1cccc(-c2csc(N3CCC(C(N)=O)CC3)n2)c1`, for which the Papp was more than 1000 ×10⁻⁶ cm/s.

In turn, `O=c1cc(/C=C/c2c(F)cccc2Cl)[nH]c2ccccc12` registered an apparent permeability coefficient (Papp) of 205 ×10⁻⁶ cm/s.

`O=c1c2c([nH]c3ccc(Br)cc13)CCCC2` came in with an apparent permeability (Papp) of 62.4 ×10⁻⁶ cm/s.

`CN(C)c1ccc2cc(C(=O)N[C@@H](CCCN=C(N)CCl)C(=O)NCc3ccccc3)ccc2c1` showed an apparent permeability (Papp) of less than 1 ×10⁻⁶ cm/s.

As for `Cc1ccnc(NC(=S)N2CCN(c3cccc(C(F)(F)F)n3)CC2)c1`, the Papp is 866 ×10⁻⁶ cm/s.

Molecule `Cc1ccc(S(=O)(=O)Nc2cc3c(cc2C(=O)Nc2nc(-c4ccccc4)cs2)OCO3)cc1` yielded a Papp of 19.3 ×10⁻⁶ cm/s.

Molecule `NC(=O)C1CCN(c2nc(-c3ccccc3Br)cs2)CC1` displayed an apparent permeability (Papp) of 462 ×10⁻⁶ cm/s.

Take `C1CCc2nc3c(nc2C1)CCCC3`: the Papp is 257 ×10⁻⁶ cm/s.

`CCOC(=O)N1CCN(Cc2nc3c(c(=O)n(C)c(=O)n3C)n2CCC(C)C)CC1` gave an apparent permeability coefficient (Papp) of 765 ×10⁻⁶ cm/s.

`Cc1ccc(C)c(CN2CCC(CNC(=O)Nc3ccc(Br)cc3F)CC2)c1` registered a Papp of more than 1000 ×10⁻⁶ cm/s.

In turn, `CC(=O)Nc1nc(C)c(-c2ccc(Cl)c(S(=O)(=O)NCCO)c2)s1` came in with an apparent permeability coefficient (Papp) of 12.1 ×10⁻⁶ cm/s.

On to `O=C(CNC12CC3CC(CC(C3)C1)C2)c1ccc(Cl)cc1`, for which the Papp was determined as 635 ×10⁻⁶ cm/s.

`O=C(c1ccco1)N1CCN(c2nc(-c3ccc(Br)cc3)cs2)CC1`: the Papp was found to be 4.09 ×10⁻⁶ cm/s.

On to `CN1C(=O)CN=C(c2ccc[nH]2)c2cc(Cl)ccc21`, for which the apparent permeability (Papp) was 714 ×10⁻⁶ cm/s.

Molecule `Cc1cc(NS(=O)(=O)c2ccc(NC(=O)Cc3ccc(Cl)c(Cl)c3)cc2)no1` registered a Papp of 30.2 ×10⁻⁶ cm/s.

Consider `Nc1c(C(=O)Nc2ccc(Cl)cc2)sc2nc3c(cc12)N1CCC3CC1`, for which the apparent permeability (Papp) was 697 ×10⁻⁶ cm/s.

For the origin of these results see PubChem BioAssay AID1508612.
